Among the data in patent US6949536B2, “Sulfonylbenzene compounds as anti-inflammatory/analgesic agents” (Pfizer, Inc., priority 1998, dated 2005) are melting point values, retold here.

Structures can show the parent of a compound that is named as a salt.

On to `Cc1onc(-c2ccc(-c3cscn3)cc2)c1-c1ccc(S(N)(=O)=O)c(F)c1` [Example 172, 2-Fluoro-4-{5-methyl-3-[4-(1,3-thiazol-4-yl)phenyl]-4-isoxazolyl}benzenesulfonamide], for which the melting point (in general, the temperature, or range, at which the solid turns liquid) amounted to 216 °C.

In turn, `CS(=O)(=O)c1ccc(-n2nc(C(F)(F)F)cc2-c2ccc(-c3ccoc3)cc2)cc1` [Example 20, 1-[4-(Methylsulfonyl)phenyl]-5-[4-(3-furyl)phenyl]-3-trifluoromethyl-1H-pyrazole] had a melting point of 165 to 166 °C.

As to `Cc1noc(-c2ccc(-c3cscn3)cc2)c1-c1ccc(S(N)(=O)=O)cc1` [Example 190, 4-[3-Methyl-5-[4-(1,3-thiazol-4-yl)phenyl]-4-isoxazolyl]benzenesulfonamide], the melting point is 236 °C.

With `Cc1cc(-n2nc(C(F)(F)F)cc2-c2ccc(-c3ccco3)cc2)ccc1S(C)(=O)=O` (as salt: hydrochloride) [Example 157, 5-[4-(2-Furyl)phenyl]-1-[3-methyl-4-(methylsulfonyl)phenyl]-3-(trifluoromethyl)-1H-pyrazole], the melting point lay in the range of 135 to 139 °C.

In the case of `Cc1noc(-c2ccc(S(C)(=O)=O)cc2)c1-c1ccc(-c2cscn2)cc1` [Example 191, 3-Methyl-5-[4-(methylsulfonyl)phenyl]-4-[4-(1,3-thiazol-4-yl)phenyl]isoxazole], the melting point was found to be 119 °C.

For `Cc1cc(-c2ccc(S(C)(=O)=O)cc2)n(-c2ccc(-c3ccco3)cc2)c1` [Example 58, 1-[4-(2-Furyl)phenyl]-4-methyl-2-[4-(methylsulfonyl)phenyl]-1H-pyrrole], the melting point was 133 to 135 °C.

Regarding `NS(=O)(=O)c1ccc(-n2nc(C(F)(F)F)cc2-c2ccc(-c3cscn3)c(Cl)c2)cc1F` (as salt: hydrochloride) [Example 122, 2-Fluoro-4-[5-[3-chloro-4-(1,3-thiazol-4-yl)phenyl]-3-(trifluoromethyl)-1H-pyrazol-1-yl]benzenesulfonamide], the melting point lay in the range of 173 to 175 °C.

In the case of `CCOC(=O)c1cc(-c2ccc(-c3ccco3)cc2)n(-c2ccc(S(C)(=O)=O)cc2)n1` [Example 65, Ethyl 5-[4-(2-furyl)phenyl]-1-[4-(methylsulfonyl)phenyl]-1H-pyrazole-3-carboxylate], the melting point lay in the range of 180.9 to 181.1 °C.

`Cc1cc(S(N)(=O)=O)ccc1-n1nc(C(F)(F)F)cc1-c1ccc(-c2ccco2)cc1` (as salt: hydrochloride) [Example 145, 4-[5-[4-(2-Furyl)phenyl]-3-(trifluoromethyl)-1H-pyrazol-1-yl]-3-methylbenzenesulfonamide] had a melting point of 87 to 89 °C.

On to `Cc1ccc(-c2ccc(S(C)(=O)=O)c(F)c2)n1-c1ccc(-c2ccoc2)cc1` [Example 36, 5-[3-Fluoro-4-(methylsulfonyl)phenyl]-1-[4-(3-furyl)phenyl]-2-methyl-1H-pyrrole], for which the melting point was in the range of 147 to 150 °C.

`CS(=O)(=O)c1ccc(-n2nc(C(F)(F)F)cc2-c2ccc(-c3ccco3)c(Cl)c2)cc1` (as salt: hydrochloride) [Example 71, 1-[4-(Methylsulfonyl)phenyl]-5-[3-chloro-4-(2-furyl)phenyl]-3-(trifluoromethyl)-1H-pyrazole] yielded a melting point of 143 to 145 °C.

For the molecule `CC(=O)Nc1cnn(-c2ccc(S(C)(=O)=O)c(F)c2)c1-c1ccc(-c2cscn2)cc1` [Example 164, N-[1-[3-Fluoro-4-(methylsulfonyl)phenyl]-5-[4-(1,3-thiazol-4-yl)phenyl]-1H-pyrazol-4-yl]acetamide], the melting point stood at 225.2 °C.

`Cc1ccc(-c2ccc(S(C)(=O)=O)c(F)c2)n1-c1ccc(-c2ccco2)cc1` [Example 35, 5-[3-Fluoro-4-(methylsulfonyl)phenyl]-1-[4-(2-furyl)phenyl]-2-methyl-1H-pyrrole] registered a melting point of 179 to 182 °C.

On to `CS(=O)(=O)c1ccc(-n2nc(C(F)(F)F)cc2-c2ccc(-c3cc4ccccc4o3)cc2)cc1` [Example 4, 1-[4-(Methylsulfonyl)phenyl]-5-[4-(benzo[b]furan-2-yl)phenyl]-3-trifluoromethyl-1H-pyrazole], for which the melting point lay in the range of 137 to 138 °C.

In turn, `CCOc1cc(-n2nc(C(=O)O)cc2-c2ccc(-c3ccco3)cc2)ccc1S(C)(=O)=O` [Example 127, 1-[3-Ethoxy-4-(methylsulfonyl)phenyl]-5-[4-(2-furyl)phenyl]-1H-pyrazole-3-carboxylic Acid] displayed a melting point of 256 to 257 °C.

With `Cc1cc(-n2c(C)ccc2-c2ccc(S(C)(=O)=O)cc2)ccc1-c1ccoc1` [Example 39, 1-[4-(3-Furyl)-3-methylphenyl]-2-methyl-5-[4-(methylsulfonyl)phenyl]-1H-pyrrole], the melting point is 69 to 75 °C.

The molecule `Cc1nc(-c2ccc(-c3cc(C(F)(F)F)nn3-c3ccc(S(C)(=O)=O)c(F)c3)cc2)cs1` [Example 102, 4-{4-[1-[3-Fluoro-4-(methylsulfonyl)phenyl]-3-(trifluoromethyl)-1H-pyrazol-5-yl]phenyl}-2-methyl-1,3-thiazole] returned a melting point of 139 to 141 °C.

`Cc1nc(-c2ccc(S(N)(=O)=O)c(F)c2)c(-c2ccc(-c3cscn3)cc2)o1` [Example 193, 2-fluoro-4-[2-methyl-5-[4-(1,3-thiazol-4-yl)phenyl]-1,3-oxazol-4-yl]benzenesulfonamide] returned a melting point of 192 to 194 °C.

`CS(=O)(=O)c1ccc(-n2nccc2-c2ccc(-c3ccco3)cc2)cc1F` [Example 162, 1-[3-Fluoro-4-(methylsulfonyl)phenyl]-5-[4-(2-furyl)phenyl]-1H-pyrazole]: the melting point lay in the range of 155 to 156 °C.

`Cc1nc(-c2ccc(-c3cscn3)cc2)c(-c2ccc(S(C)(=O)=O)c(F)c2)o1` [Example 169, 5-[3-Fluoro-4-(methylsulfonyl)phenyl]-2-methyl-4-[4-(1,3-thiazol-4-yl)phenyl]-1,3-oxazole] gave a melting point of 196 to 197 °C.

The molecule `CS(=O)(=O)c1ccc(-n2nc(C(F)(F)F)cc2-c2ccc(-c3cscn3)c(F)c2)cc1F` [Example 105, 4-{4-[1-[3-Fluoro-4-(methylsulfonyl)phenyl]-3-(trifluoromethyl)-1H-pyrazol-5-yl]-2-fluorophenyl}-1,3-thiazole] showed a melting point of 156 to 158 °C.

`CS(=O)(=O)c1ccc(-n2nc(C(F)(F)F)cc2-c2ccc(-c3ncco3)cc2)cc1` (as salt: hydrochloride) [Example 97, 2-{4-[1-[4-(Methylsulfonyl)phenyl]-3-(trifluoromethyl)-1H-pyrazol-5-yl]phenyl}-1,3-oxazole] registered a melting point of 190 to 192 °C.

On to `Cc1cc(-c2cc(C(F)(F)F)nn2-c2ccc(S(C)(=O)=O)c(F)c2)ccc1-c1cscn1` [Example 106, 4-{4-[1-[3-Fluoro-4-(methylsulfonyl)phenyl]-3-(trifluoromethyl)-1H-pyrazol-5-yl]-2-methylphenyl}-1,3-thiazole], for which the melting point was in the range of 112 to 114 °C.

Molecule `CS(=O)(=O)c1ccc(C2=C(c3ccc(-c4cscn4)cc3)C(=O)OC2)cc1` [Example 182, 4-[4-(Methylsulfonyl)phenyl]-3-[4-(1,3-thiazol-4-yl)phenyl]-2(5H)-furanone] gave a melting point of 236.8 °C.

In turn, `NS(=O)(=O)c1ccc(-n2nc(C(F)(F)F)cc2-c2ccc(-c3cscn3)cc2)cc1` (as salt: hydrochloride) [Example 100, 4-[5-[4-(1,3-Thiazol-4-yl)phenyl]-3-(trifluoromethyl)-1H-pyrazol-1-yl]benzenesulfonamide] registered a melting point of 188 to 190 °C.

In turn, `CS(=O)(=O)c1ccc(-n2cc(C(F)(F)F)nc2-c2ccc(-c3ccco3)cc2)cc1` [Example 53, 2-[4-(2-Furyl)phenyl]-1-[4-(methylsulfonyl)phenyl]-4-(trifluoromethyl)-1H-imidazole] came in with a melting point of 82 to 84 °C.

As to `Cc1cc(S(C)(=O)=O)ccc1-n1nc(C(F)(F)F)cc1-c1ccc(-c2ccco2)cc1` (as salt: hydrochloride) [Example 142, 5-[4-(2-Furyl)phenyl]-1-[4-(methylsulfonyl)-2-methylphenyl]-3-trifluoromethyl-1H-pyrazole], the melting point was 205 °C.

On to `COc1cc(-c2cc(C(F)(F)F)nn2-c2ccc(S(C)(=O)=O)cc2)ccc1-c1cscn1` (as salt: hydrochloride) [Example 120, 4-{2-Methoxy-4-[1-[4-(methylsulfonyl)phenyl]-3-(trifluoromethyl)-1H-pyrazol-5-yl]phenyl}-1,3-thiazole], for which the melting point lay within 164 to 166 °C.

On to `CS(=O)(=O)c1ccc(-n2nc(C(F)(F)F)cc2-c2ccc(-c3cscn3)c(Cl)c2)cc1F` [Example 109, 4-{2-Chloro-4-[1-[3-fluoro-4-(methylsulfonyl)phenyl]-3-(trifluoromethyl)-1H-pyrazol-5-yl]phenyl}-1,3-thiazole], for which the melting point lay within 108 to 110 °C.

For `CNC(=O)c1cc(-c2ccc(-c3ccco3)cc2)n(-c2ccc(S(C)(=O)=O)c(F)c2)n1` [Example 131, N-Methyl-1-[3-fluoro-4-(methylsulfonyl)phenyl]-5-[4-(2-furyl)phenyl]-1H-pyrazole-3-carboxamide], the melting point was 196 to 198 °C.

In turn, `Cc1onc(-c2ccc(-c3cscn3)cc2)c1-c1ccc(S(C)(=O)=O)c(F)c1` [Example 168, 4-[3-Fluoro-4-(methylsulfonyl)phenyl]-5-methyl-3-[4-(1,3-thiazol-4-yl)phenyl]isoxazole] gave a melting point of 130 °C.

On to `Cc1cc(-c2ccc(-c3ccoc3)cc2)n(-c2ccc(S(C)(=O)=O)cc2)c1` [Example 56, 2-[4-(3-Furyl)phenyl]-4-methyl-1-[4-(methylsulfonyl)phenyl]-1H-pyrrole], for which the melting point lay in the range of 193 to 195 °C.

`CS(=O)(=O)c1ccc(-n2nc(C(F)(F)F)cc2-c2ccc(-c3cocn3)cc2)cc1` (as salt: hydrochloride) [Example 95, 4-{4-[1-[4-(Methylsulfonyl)phenyl]-3-(trifluoromethyl)-1H-pyrazol-5-yl]phenyl}-1,3-oxazole] gave a melting point of 175 to 177 °C.

The molecule `NS(=O)(=O)c1ccc(-n2nc(C(F)(F)F)cc2-c2ccc(-c3ncco3)cc2)cc1` (as salt: hydrochloride) [Example 98, 4-[5-[4-(1,3-Oxazol-2-yl)phenyl]-3-(trifluoromethyl)-1H-pyrazol-1-yl]benzenesulfonamide] displayed a melting point of 215 to 217 °C.
